{"source": "patent US5451518A", "about": "“Purified human ceramide-activated protein kinase” (Sloan-Kettering Institute for Cancer Research, priority 1992, dated 1995)", "key": {"[1]": {"system": "HL-60 cells", "conditions": "cited from earlier work"}, "[2]": {"system": "HL-60 cells", "conditions": "cited from earlier work", "remark": "listed apart in the source"}, "[3]": {"system": "ceramide-activated protein kinase", "test": "Ceramide-activated protein kinase activity in HL-60 cell-free system", "format": "biochemical, human", "experimental": "HL-60 cells were incubated in serum-free medium and homogenized (as in FIGS. 9A and 9B). […] ATP (750 μM, 4000 dpm pmol^-1), and 75 μl of reaction buffer (40). The reaction was terminated by adding 30 μl of 0.5M ATP in 90% formic acid. Phosphorylated peptide was first run on a C18 Sep-Pak cartridge, then resolved by C18 reverse-phase HPLC (Waters, Milford, Mass.), with a linear gradient of acetonitrile. The peptide eluted at 30% acetonitrile, as determined by monitoring Cerenkov radiation in 1-ml fractions. Background activity was subtracted from each point. (FIG. 10A) Kinetics of TNF-α (30 nM)-stimulated EGFR peptide phosphorylation. Values (mean) represent data from four experiments. (FIG. 10B) Concentration dependence of EGFR peptide phosphorylation at 5 minutes of stimulation with TNF-α (0.01 to 30 nM). Values (mean) represent data derived from duplicate points in two experiments. The SEM of the values in (FIG. 10A) was 18% and the mean range of values in (FIG. 10B) was 3%.\nPeptide phosphorylation was measured as in FIGS. 10A nad 10B. Control value represents peptide phosphorylation in the absence of phospholipases or TNF-α. Values (mean ± SEM) represent data derived from duplicate samples in three experiments. *P<0.001 compared to control.\n(§1) The binding of TNF-α to its receptor is detectable within 2 minutes and maximal by 5 to 10 minutes at 4° C. in membranes derived from HL-60 cells (41). Therefore, supernates from HL-60 cells, collected after a low-speed centrifugation to remove nuclei, were first incubated with TNF-α for 5 minutes at 4° C. to allow the formation of TNF-receptor complexes. Thereafter, reactions were initiated by warming supernates to 22° C. in a reaction mixture containing adenosine triphosphate (ATP) and Mg^2+ at pH 7.4.\nThe effect of TNF-α on ceramide-activated protein kinase activity was assessed. […] For studies assessing the effect of TNFα in broken cell preparations, nuclei-free supernates were incubated under conditions sufficient for stimulation of neutral sphingomyelinase in a reaction mixture that also contained EGFR peptide and γ-^32 P-labeled ATP. Phosphorylated peptide was resolved by high-performance liquid chromatograph (HPLC) and quantified by Cerenkov counting (40). Kinase activity was calculated from the specific activity of [γ-^32 P] ATP and incorporation of ^32 P into EGFR peptide. Background activity was subtracted from each point. […] If the initial incubation with TNF-α at 4° C. was omitted and TNF was added directly to the reaction mixture at 22° C., the reaction was delayed. […] TNF-α enhanced kinase activity in a concentration-dependent manner at 5 minutes (FIG. 10B). […] This is similar to the ED50 of 200 pM for stimulation of ceramide-activated protein kinase by TNF-α in intact cells (40). TNF-α enhanced kinase activity in a total of 20 separate studies.\nControl activity reflects several TNF-α-independent protein kinases that are known to phosphorylate EGFR peptide on Thr^669."}, "[4]": {"system": "ceramide-activated protein kinase"}, "[5]": {"system": "ceramide-activated protein kinase", "conditions": "cited from earlier work"}, "[6]": {"system": "sphingomyelin (HL-60 nuclei-free supernate)", "test": "Sphingomyelin content in HL-60 cell-free system", "format": "biochemical, human", "experimental": "(§2) HL-60 cells were grown in RPMI 1640 medium supplemented with 10% bovine calf serum and amino acids (4). To measure sphingomyelin, cells were resuspended (1×10^6 ml^-1), labeled for 48 hours in medium with [^3 H]choline (1 μCi ml^-1) (57), in serum-free medium containing bovine insulin (5 μg ml^-1) and human transferrin (5 μg ml^-1). After 3 hours, cells were resuspended (150×10^6 ml^-1) in homogenization buffer (50 mM NaF, 5 mM EGTA, and 25 mM Hepes, pH 7.4), disrupted at 4° C. with 150 strokes of a tight-fitting Dounce homogenizer (Fisher Scientific, Pittsburgh, Pa.), and centrifuged for 5 minutes (500 g). The nuclei-free supernate was first incubated for 5 minutes at 4° C. with 30 nM human TNF-α (Genentech, South San Francisco, Calif.) or diluent ( 50 mMHepes, pH 7.4). At time zero, 15 μl of supernate (112 μg per incubation) were added to a reaction mixture containing 30 μl of 25 mM Hepes, pH 7.4, 30 μl of 750 μM ATP, and 75 μl of reaction buffer (50 mM Hepes, pH 7.4 and 20 mM MgCl2) at 22° C. The reaction was terminated with CHCl3 :CH3 OH:HCl (100:100:1, v/v/v) (3, 4, 13) and 150 μl of balanced salt solution (135 mM NaCl, 4.5 mM KCl, 1.5 mM CaCl2, 0.5 mM MgCl2, 5.6 mM glucose, and 10 mM Hepes, pH 7.2) containing 20 mM EDTA. Lipids in the organic phase extract were subjected to alkaline methanolysis to remove glycerophospholipids (4). Sphingomyelin recovery in the nuclei-free supernate was 93% of that in intact cells. A measure of 10^6 cell equivalents of supernate contained 50 μg of protein. Sphingomyelin was resolved by thin-layer chromatograhy (TLC) with CHCl3 :CH3 OH:CH3 COOH:H2 O (25:15:4:1.5 ) as solvent, identified by iodine vapor staining and quantified by liquid scintillation spectrometry (1, 8, 56). Ceramide was quantified with the diacyglycerol kinase reaction (4, 57). Values (mean) are derived from triplicate determinations from one experiment representative of three similar studies for sphingomyelin and four similar studies for ceramide.\nas §1\nThese conditions were adopted to allow for activation of neutral sphingomyelinase (1, 42). Under these conditions, TNF-α induced a time- and concentration-dependent reduction in sphingomyelin content (FIG. 9A). the effect of TNF-α was evident at 1 minute and maximal by 7.5 minutes. Sphingomyelin concentrations decreased 27% from a control concentration of 10.4±0.5 (mean ± SEM) to 7.6±0.2 nmol per milligram (nmol mg^-1) of supernate protein (P<0.001). […] Concentrations of TNF-α of 300 pM were ineffective, with a maximal effect at 3 nMTNF-α [effective dose (ED50)≈500 pM]. Under the same conditions, ceramide increased quantitatively from 1.8±0.3 to 4.0±0.5 nmol mg^-1 (FIG. 9B). This effect was detectable at 1 minute (P<0.001) and maximal by 7.5 minutes. Thus, 2.8 nmol of sphingomyelin per milligram of supernate protein were lost for each 2.2 nmol of ceramide per milligram of supernate protein that was generated. […] Other choline-containing lipids, including phosphatidyl-choline, lysophosphatidylcholine, sphingosylphosphorylcholine(1), and 1,2-diacylglycerol were not affected by TNF-α."}, "[7]": {"system": "phosphatidyl-choline, lysophosphatidylcholine, sphingosylphosphorylcholine, 1,2-diacylglycerol", "test": "Other choline-containing lipids and diacylglycerol in HL-60 cell-free system", "format": "biochemical, human", "conditions": "TNF-α"}, "[8]": {"system": "ceramide (HL-60 nuclei-free supernate)", "test": "Ceramide content in HL-60 cell-free system", "format": "biochemical, human", "experimental": "as §2, §1\nThese conditions were adopted to allow for activation of neutral sphingomyelinase (1, 42). […] Under the same conditions, ceramide increased quantitatively from 1.8±0.3 to 4.0±0.5 nmol mg^-1 (FIG. 9B). […]"}}, "note": "Entries after “also recorded” stand apart in the source; their conditions may differ. Like-named read-outs stand apart in the source and are kept apart here.", "data": [{"substance": "TNF-α", "values": [{"measurement": "maximally effective concentration for generation of ceramide", "setting": "[1]; also for monocyte differentiation", "value": 30, "unit": "nM"}, {"measurement": "sphingomyelin degradation to ceramide / ceramide level (in words)", "setting": "[1]", "value": "increase cellular levels of ceramide within minutes; also recorded: activates a neutral sphingomyelinase to generate ceramide"}, {"measurement": "sphingomyelin degradation to ceramide / ceramide level (in words)", "setting": "[1]; listed as Tumor necrosis factor (TNF) α", "value": "stimulate sphingomyelin degradation to ceramide"}, {"measurement": "monocytic differentiation", "setting": "[2]", "value": "induce monocytic differentiation"}, {"measurement": "delay before enhancement of kinase activity", "setting": "[3]; TNF added directly at 22° C., no 4° C. incubation", "value": 2, "unit": "min"}, {"measurement": "duration of stimulation of kinase activity", "setting": "[3]; TNF-α 30 nM", "value": "at least 10 minutes"}, {"measurement": "time at which stimulation of kinase activity was evident", "setting": "[3]; TNF-α 30 nM", "value": "evident by i minute"}, {"measurement": "effect on kinase activity (in words)", "setting": "[3]; TNF-α 30 nM, GTP, GTP-γ-S 0.25 to 200 μM, SMase 1×10^-3 U ml^-1, 5 minutes, phospholipases 40- to 400-fold higher", "value": "enhanced kinase activity (P<0.001)"}, {"measurement": "concentration for maximal effect", "setting": "[3]; TNF-α, 5 minutes", "value": 3, "unit": "nM"}, {"measurement": "effective concentration", "setting": "[3]; TNF-α, 5 minutes", "value": 10, "unit": "pM"}, {"measurement": "ED50 for kinase activity", "setting": "[3]; TNF-α, 5 minutes, cell-free", "value": "≈ 300 pM"}, {"measurement": "increase in kinase activity", "setting": "[4]; TNF-α 3 pM, 60 minutes", "value": "1.1 -fold of control"}, {"measurement": "increase in kinase activity", "setting": "[4]; TNF-α 30 nM, 5 minutes", "value": "1.5 -fold of control"}, {"measurement": "maximal effect on kinase activity", "setting": "[4]; TNF-α 30 nM, 60 minutes", "value": "1.8 -fold of control"}, {"measurement": "increase in kinase activity", "setting": "[4]; TNF-α 30 nM, 2 hours", "value": "2.2 -fold of control"}, {"measurement": "increase in kinase activity", "setting": "[4]; TNF-α 30 nM, 2 hours, listed as TNF", "value": "2 -fold of control"}, {"measurement": "ED50 for kinase activity", "setting": "[4]; TNF-α, 60 minutes, intact cells", "value": "≈ 200 pM"}, {"measurement": "effect on kinase activity (in words)", "setting": "[5]; intact HL-60 cells", "value": "rapidly increased; also recorded: similarly enhanced kinase activity in intact cells"}, {"measurement": "ED50 for stimulation of ceramide-activated protein kinase", "setting": "[5]; intact cells", "value": 0.2, "unit": "nM"}, {"measurement": "concentration for maximal effect on sphingomyelin", "setting": "[6]; TNF-α", "value": 3, "unit": "nM"}, {"measurement": "effective dose (ED50), sphingomyelin reduction", "setting": "[6]; TNF-α", "value": "≈ 500 pM"}, {"measurement": "sphingomyelin lost", "setting": "[6]; TNF-α", "value": "2.8 nmol per milligram of supernat"}, {"measurement": "time at which sphingomyelin reduction was evident", "setting": "[6]; TNF-α", "value": 1, "unit": "min"}, {"measurement": "time to maximal sphingomyelin reduction", "setting": "[6]; TNF-α", "value": "≤ 7.5", "unit": "min"}, {"measurement": "decrease in sphingomyelin concentration", "setting": "[6]; TNF-α, P<0.001", "value": 27, "unit": "%"}, {"measurement": "sphingomyelin concentration after TNF-α", "setting": "[6]; mean ± SEM, control 10.4±0.5, P<0.001", "value": "7.6±0.2 nmol per milligram (nmol mg^-1) of supernate protein"}, {"measurement": "effect on phosphatidyl-choline, lysophosphatidylcholine, sphingosylphosphorylcholine and 1,2-diacylglycerol", "setting": "[7]", "value": "not affected"}, {"measurement": "ceramide generated", "setting": "[8]; TNF-α", "value": "2.2 nmol per milligram of supernat"}, {"measurement": "time to maximal ceramide increase", "setting": "[8]; TNF-α", "value": "≤ 7.5", "unit": "min"}, {"measurement": "time at which ceramide increase was detectable", "setting": "[8]; TNF-α, P<0.001", "value": 1, "unit": "min"}, {"measurement": "ceramide concentration after TNF-α", "setting": "[8]; from 1.8±0.3", "value": "4.0 ± 0.5", "unit": "nmol/mg"}]}]}
